This note sets out measurements from patent US11945801B2, “Bicyclic aza compounds as muscarinic M1 and/or M4 receptor agonists” (Heptares Therapeutics Limited, priority 2018, dated 2024).

Common to all, as to type: cell-based
Test [1] concerns the target T1, human muscarinic M4 receptor (Homo sapiens, UniProt P08173).
T1 construct: expressed in transfected cells
T1 sequence (P08173 1-479): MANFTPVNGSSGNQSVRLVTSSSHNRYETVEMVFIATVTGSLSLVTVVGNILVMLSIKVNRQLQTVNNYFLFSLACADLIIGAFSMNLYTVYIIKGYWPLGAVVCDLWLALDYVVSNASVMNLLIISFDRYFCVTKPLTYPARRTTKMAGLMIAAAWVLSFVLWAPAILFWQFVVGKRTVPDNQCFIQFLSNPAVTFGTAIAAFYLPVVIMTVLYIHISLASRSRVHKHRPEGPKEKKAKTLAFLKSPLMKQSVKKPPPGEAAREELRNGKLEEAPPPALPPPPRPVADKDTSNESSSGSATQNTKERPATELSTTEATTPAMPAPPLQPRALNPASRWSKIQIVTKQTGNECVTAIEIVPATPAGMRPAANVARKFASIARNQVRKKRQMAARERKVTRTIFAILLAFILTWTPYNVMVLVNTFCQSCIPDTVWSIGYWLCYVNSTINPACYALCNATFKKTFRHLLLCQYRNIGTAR
The experiment in a line: Alphascreen Surefire phospho-ERK1/2 functional assay, M4. The following applies: for EC50 / % Emax cf. ACh, M4: CHO cells stably expressing human M4; for EC50: agonist 5 min, 37° C., read-out: pEC50 M4 (converted); for Emax: CHO, read-out: % Emax cf. ACh, M4, CHO cells stably expressing human M4; for Emax / % Emax cf. ACh, M4: Emax relative to ACh. As to the method:
(§1) ERK1/2 phosphorylation is a downstream consequence of both Gq/11 and Gi/o protein coupled receptor activation, making it highly suitable for the assessment of M1, M3 (Gq/11 coupled) and M2, M4 receptors (Gi/o coupled), rather than using different assay formats for different receptor subtypes. CHO cells stably expressing the human muscarinic M1, M2, M3 or M4 receptor were plated (25K/well) onto 96-well tissue culture plates in MEM-alpha+10% dialysed FBS. Once adhered, cells were serum-starved overnight. Agonist stimulation was performed by the addition of 5 μL agonist to the cells for 5 min (37° C.). Media was removed and 50 μL of lysis buffer added. After […], a 4 μL sample was transferred to 384-well plate and 7 μL of detection mixture added.
(§2) Isomer assignment (Isomer 1, Isomer 2, etc.) is based on the retention time of the compound using the separation technique that was performed in the final purification step. By implication, this could be reversed phase HPLC, chiral HPLC or chiral SFC retention time, and this will vary from compound to compound.

Test [2] has as its target T2, human muscarinic M3 receptor (Homo sapiens, UniProt P20309).
T2 construct: expressed in transfected cells
The experiment in a line: Alphascreen Surefire phospho-ERK1/2 functional assay, M3. The conditions noted are these: for EC50: CHO cells stably expressing human M3, agonist 5 min, 37° C., read-out: pEC50 M3 (converted); for Emax: CHO, read-out: % Emax cf. ACh, M3, CHO cells stably expressing human M3, Emax relative to ACh. As to the method: as §1, §2

Test [3] has as its target T3, human muscarinic M2 receptor (Homo sapiens, UniProt P08172).
T3 sequence (P08172 1-466): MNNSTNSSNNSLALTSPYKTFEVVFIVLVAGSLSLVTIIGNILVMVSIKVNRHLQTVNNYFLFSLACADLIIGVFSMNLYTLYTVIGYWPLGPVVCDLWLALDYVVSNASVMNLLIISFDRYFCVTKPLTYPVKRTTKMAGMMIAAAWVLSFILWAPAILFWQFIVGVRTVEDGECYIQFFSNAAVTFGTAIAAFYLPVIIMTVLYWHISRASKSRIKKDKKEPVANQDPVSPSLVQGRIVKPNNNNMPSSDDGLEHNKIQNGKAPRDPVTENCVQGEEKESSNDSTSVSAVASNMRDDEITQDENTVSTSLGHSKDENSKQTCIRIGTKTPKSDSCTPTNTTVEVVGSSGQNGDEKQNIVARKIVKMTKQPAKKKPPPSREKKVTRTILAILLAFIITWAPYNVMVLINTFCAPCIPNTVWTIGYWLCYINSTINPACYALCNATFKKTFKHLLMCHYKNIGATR
In words: Alphascreen Surefire phospho-ERK1/2 functional assay, M2. The conditions noted are these: for EC50: CHO cells stably expressing human M2, agonist 5 min, 37° C., read-out: pEC50 M2 (converted); for Emax: CHO, read-out: % Emax cf. ACh, M2, CHO cells stably expressing human M2, Emax relative to ACh. As to the method: as §1, §2

Test [4] addresses T4, human muscarinic M1 receptor (Homo sapiens, UniProt P11229).
T4 sequence (P11229 1-460): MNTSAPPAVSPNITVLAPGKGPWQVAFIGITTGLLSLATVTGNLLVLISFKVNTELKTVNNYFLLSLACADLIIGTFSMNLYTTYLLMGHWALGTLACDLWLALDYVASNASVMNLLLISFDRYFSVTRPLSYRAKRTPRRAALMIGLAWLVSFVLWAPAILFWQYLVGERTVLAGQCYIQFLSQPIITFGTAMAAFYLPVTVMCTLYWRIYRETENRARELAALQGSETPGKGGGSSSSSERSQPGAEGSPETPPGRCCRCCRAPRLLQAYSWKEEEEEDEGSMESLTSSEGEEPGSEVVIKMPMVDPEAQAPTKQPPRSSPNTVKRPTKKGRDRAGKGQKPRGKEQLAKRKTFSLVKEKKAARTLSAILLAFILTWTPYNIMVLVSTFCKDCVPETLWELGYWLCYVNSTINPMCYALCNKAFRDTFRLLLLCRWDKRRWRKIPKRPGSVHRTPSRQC
The experiment in a line: Alphascreen Surefire phospho-ERK1/2 functional assay, M1. The following applies: for EC50 / % Emax cf. ACh, M1: CHO cells stably expressing human M1; for EC50: agonist 5 min, 37° C., read-out: pEC50 M1 (converted); for Emax: CHO, read-out: % Emax cf. ACh, M1, CHO cells stably expressing human M1; for Emax / % Emax cf. ACh, M1: Emax relative to ACh. As to the method:
as §1, §2

T2 sequence (P20309 whole entry): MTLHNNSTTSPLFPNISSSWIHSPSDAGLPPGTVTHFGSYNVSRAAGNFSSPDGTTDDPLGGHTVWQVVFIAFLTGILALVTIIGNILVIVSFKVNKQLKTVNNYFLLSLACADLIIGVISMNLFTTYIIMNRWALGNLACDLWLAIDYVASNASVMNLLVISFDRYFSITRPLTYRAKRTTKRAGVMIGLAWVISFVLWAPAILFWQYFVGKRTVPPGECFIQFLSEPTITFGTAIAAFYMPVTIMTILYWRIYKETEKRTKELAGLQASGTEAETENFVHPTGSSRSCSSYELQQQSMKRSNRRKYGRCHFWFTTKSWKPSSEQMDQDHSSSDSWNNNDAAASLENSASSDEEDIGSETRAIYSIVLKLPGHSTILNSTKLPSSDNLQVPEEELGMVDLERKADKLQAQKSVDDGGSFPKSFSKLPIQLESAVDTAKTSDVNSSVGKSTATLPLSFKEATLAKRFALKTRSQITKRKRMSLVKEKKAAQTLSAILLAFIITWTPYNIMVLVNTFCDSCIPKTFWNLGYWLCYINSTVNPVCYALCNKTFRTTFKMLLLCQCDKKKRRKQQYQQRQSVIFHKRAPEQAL

`CCOC(=O)N1CC2(CCC(N3CC(OC(=O)N(C)CC)C3)C2)C1` (single isomer, unassigned) [Example 4-4 Isomer 1, Ethyl 6-(3-((ethyl(methyl)carbamoyl)oxy)azetidin-1-yl)-2-azaspiro[3.4]octane-2-carboxylate]: the EC50 was 0.0229 µM in test [1], more than 20 µM in test [2], more than 20 µM in test [3] and 0.0589 µM in test [4]. Further, the Emax in test [1] is 37%; in test [2], 0%; in test [3] it was 5%; in test [4] it was 67%.
For `CCOC(=O)N1CC2(CCC(N3CC(OC(=O)N(CC)CC)C3)C2)C1` (single isomer, unassigned) [Example 4-5 Isomer 1, Ethyl 6-(3-((diethylcarbamoyl)oxy)azetidin-1-yl)-2-azaspiro[3.4]octane-2-carboxylate], in test [1] (listed as 4-5 Isomer 1), the “% Emax cf. ACh, M4” value is given as 31%. The EC50 in test [1] was 0.0331 µM; in test [2], more than 20 µM; in test [3] it was more than 20 µM; in test [4], 0.0158 µM. Moreover, the maximal response (Emax) in test [2] was 54%; in test [3], 6%. In test [4] (listed as 4-5 Isomer 1), the “% Emax cf. ACh, M1” value was found to be 66%.
In the case of `CCN(CC)C(=O)OC1CN(C2CCC3(C2)CN(C(=O)OC)C3)C1` (single isomer, unassigned) [Example 4-6 Isomer 2, Methyl 6-(3-((diethylcarbamoyl)oxy)azetidin-1-yl)-2-azaspiro[3.4]octane-2-carboxylate], in test [1], the “% Emax cf. ACh, M4” value amounted to 32% and the EC50 is 0.339 µM. Further, in test [2], the EC50 was more than 20 µM and the Emax was 11%. In addition, in test [3], the EC50 was more than 20 µM and the Emax was 9%. Moreover, in test [4], the “% Emax cf. ACh, M1” value came to 93% and the EC50 was 0.214 µM.
Consider `CCOC(=O)N1CC2(CCC(N3CC(OC(=O)N4CCCC4)C3)C2)C1` (single isomer, unassigned) [Example 4-7 Isomer 1, Ethyl 6-(3-((pyrrolidine-1-carbonyl)oxy)azetidin-1-yl)-2-azaspiro[3.4]octane-2-carboxylate], for which the EC50 was 0.049 µM in test [1], more than 20 µM in test [2], more than 20 µM in test [3] and 0.0759 µM in test [4]. Also, the maximum response (Emax) worked out at 29% in test [1], 8% in test [2], 7% in test [3] and 51% in test [4].
In the case of `CCOC(=O)N1CC2(CCC(N3CC(OC(=O)N4CCOCC4)C3)C2)C1` (single isomer, unassigned) [Example 4-8 Isomer 1, 1-(2-(Ethoxycarbonyl)-2-azaspiro[3.4]octan-6-yl)azetidin-3-yl morpholine-4-carboxylate], the EC50 was more than 20 µM in test [1], more than 20 µM in test [2], more than 20 µM in test [3] and 0.0575 µM in test [4]. The Emax in test [1] was 14%; in test [2], 4%; in test [3], 2%; in test [4], 72%.
In the case of `CCOC(=O)N1CC2(CCC(N3CC(OC(=O)N4CCCOCC4)C3)C2)C1` (single isomer, unassigned) [Example 4-9 Isomer 1, 1-(2-(Ethoxycarbonyl)-2-azaspiro[3.4]octan-6-yl)azetidin-3-yl 1,4-oxazepane-4-carboxylate], the “% Emax cf. ACh, M4” value in test [1] (listed as 4-9 Isomer 1) turned out to be 7%. In addition, the EC50 in test [1] was more than 20 µM; in test [2], more than 20 µM; in test [3] it was more than 20 µM; in test [4], 0.0575 µM. For the same compound, the maximum response (Emax) in test [2] turned out to be 2%; in test [3] it was 3%. Further, in test [4] (listed as 4-9 Isomer 1), the “% Emax cf. ACh, M1” value stood at 37%.
For the compound `CCOC(=O)N1CC2CCC1CC2N1CC(OC(=O)N2CCCCCC2)C1` (single isomer, unassigned) [Example 6-4 Isomer 1, Ethyl 5-(3-((azepane-1-carbonyl)oxy)azetidin-1-yl)-2-azabicyclo[2.2.2]octane-2-carboxylate], the EC50 is 0.49 µM in test [1], more than 20 µM in test [2], more than 20 µM in test [3] and 0.117 µM in test [4]. Moreover, the maximum response (Emax) worked out at 50% in test [1], 5% in test [2], 9% in test [3] and 86% in test [4].
